Reference: the supplement of paper PMC10307832

Assays:
Assay in all cases: relative viability (nuclei count vs DMSO), 5 days (fraction); higher = more cells survive
CAL-12T = tested on: CAL-12T
How it was run: (§1)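 Lung cancer cell lines in 1536-well plates got either a single drug or a fixed anchor-drug dose together with five library-drug doses (not always all listed) in √10 steps, by pin tool, on the day after seeding. Nuclei were counted after 5 days, and relative viability is the treated-to-vehicle ratio of nuclei counts. Values are medians of duplicate plates.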

NCI-H1975 = tested on: NCI-H1975
How it was run: as §1

NCI-H2085 = tested on: NCI-H2085
How it was run: as §1

NCI-H1993 = tested on: NCI-H1993
How it was run: as §1

ABC-1 = tested on: ABC-1
How it was run: as §1

EKVX = tested on: EKVX
How it was run: as §1

HCC-366 = tested on: HCC-366
How it was run: as §1

COR-L 105 = tested on: COR-L 105
How it was run: as §1

NCI-H322M = tested on: NCI-H322M
How it was run: as §1

NCI-H460 = tested on: NCI-H460
How it was run: as §1

SK-MES-1 = tested on: SK-MES-1
How it was run: as §1

HCC-827 = tested on: HCC-827
How it was run: as §1

NCI-H2087 = tested on: NCI-H2087
How it was run: as §1

H3255 = tested on: H3255
How it was run: as §1

NCI-H1355 = tested on: NCI-H1355
How it was run: as §1

NCI-H1792 = tested on: NCI-H1792
How it was run: as §1

NCI-H2009 = tested on: NCI-H2009
How it was run: as §1

EPLC-272H = tested on: EPLC-272H
How it was run: as §1

NCI-H2228 = tested on: NCI-H2228
How it was run: as §1

Cc1csc(=NC2CCCCC2)n1/N=C/c1ccc(O)c(O)c1O [MIM1] + CS(=O)(=O)CCNCc1ccc(-c2ccc3ncnc(Nc4ccc(OCc5cccc(F)c5)c(Cl)c4)c3c2)o1 [Lapatinib] (partner 2 µM)
relative viability (CAL-12T; first compound 0.2 µM): 0.615 | relative viability (CAL-12T; first compound 2 µM): 0.754 | relative viability (CAL-12T; first compound 6.325 µM): 0.578 | relative viability (CAL-12T; first compound 20 µM): 0.22 | relative viability (NCI-H1975; first compound 0.2 µM): 0.789 | relative viability (NCI-H1975; first compound 0.6325 µM): 0.796 | relative viability (NCI-H1975; first compound 2 µM): 0.875 | relative viability (NCI-H1975; first compound 6.325 µM): 0.537 | relative viability (NCI-H1975; first compound 20 µM): 0.395 | relative viability (NCI-H2085; first compound 0.2 µM): 0.799 | relative viability (NCI-H2085; first compound 0.6325 µM): 0.796 | relative viability (NCI-H2085; first compound 2 µM): 0.772 | relative viability (NCI-H2085; first compound 6.325 µM): 0.652 | relative viability (NCI-H2085; first compound 20 µM): 0.537 | relative viability (NCI-H1993; first compound 0.2 µM): 0.875 | relative viability (NCI-H1993; first compound 0.6325 µM): 0.871 | relative viability (NCI-H1993; first compound 2 µM): 0.735 | relative viability (NCI-H1993; first compound 6.325 µM): 0.87 | relative viability (NCI-H1993; first compound 20 µM): 0.541 | relative viability (ABC-1; first compound 0.2 µM): 1.32 | relative viability (ABC-1; first compound 0.6325 µM): 1.24 | relative viability (ABC-1; first compound 2 µM): 1.31 | relative viability (ABC-1; first compound 6.325 µM): 1.06 | relative viability (ABC-1; first compound 20 µM): 1.11 | relative viability (EKVX; first compound 0.2 µM): 0.186 | relative viability (EKVX; first compound 0.6325 µM): 0.221 | relative viability (EKVX; first compound 2 µM): 0.179 | relative viability (EKVX; first compound 6.325 µM): 0.177 | relative viability (EKVX; first compound 20 µM): 0.178 | relative viability (HCC-366; first compound 0.2 µM): 1.01 | relative viability (HCC-366; first compound 0.6325 µM): 0.905 | relative viability (HCC-366; first compound 2 µM): 0.741 | relative viability (HCC-366; first compound 6.325 µM): 0.548 | relative viability (HCC-366; first compound 20 µM): 0.0188 | relative viability (COR-L 105; first compound 0.2 µM): 0.371 | relative viability (COR-L 105; first compound 0.6325 µM): 0.331 | relative viability (COR-L 105; first compound 2 µM): 0.373 | relative viability (COR-L 105; first compound 6.325 µM): 0.319 | relative viability (COR-L 105; first compound 20 µM): 0.294 | relative viability (NCI-H322M; first compound 0.2 µM): 0.653 | relative viability (NCI-H322M; first compound 0.6325 µM): 0.531 | relative viability (NCI-H322M; first compound 2 µM): 0.532 | relative viability (NCI-H322M; first compound 6.325 µM): 0.577 | relative viability (NCI-H322M; first compound 20 µM): 0.801 | relative viability (NCI-H460; first compound 0.2 µM): 0.889 | relative viability (NCI-H460; first compound 0.6325 µM): 1.01 | relative viability (NCI-H460; first compound 2 µM): 0.351 | relative viability (NCI-H460; first compound 6.325 µM): 0.256 | relative viability (NCI-H460; first compound 20 µM): 0.0216 | relative viability (SK-MES-1; first compound 0.2 µM): 0.479 | relative viability (SK-MES-1; first compound 0.6325 µM): 0.441 | relative viability (SK-MES-1; first compound 2 µM): 0.504 | relative viability (SK-MES-1; first compound 6.325 µM): 0.416 | relative viability (SK-MES-1; first compound 20 µM): 0.617 | relative viability (HCC-827; first compound 0.2 µM): 0.21 | relative viability (HCC-827; first compound 0.6325 µM): 0.181 | relative viability (HCC-827; first compound 2 µM): 0.198 | relative viability (HCC-827; first compound 6.325 µM): 0.179 | relative viability (HCC-827; first compound 20 µM): 0.248 | relative viability (NCI-H2087; first compound 0.2 µM): 1.04 | relative viability (NCI-H2087; first compound 0.6325 µM): 0.85 | relative viability (NCI-H2087; first compound 2 µM): 0.998 | relative viability (NCI-H2087; first compound 6.325 µM): 0.602 | relative viability (NCI-H2087; first compound 20 µM): 0.511 | relative viability (H3255; first compound 0.2 µM): 0.274 | relative viability (H3255; first compound 0.6325 µM): 0.208 | relative viability (H3255; first compound 2 µM): 0.242 | relative viability (H3255; first compound 6.325 µM): 0.22 | relative viability (H3255; first compound 20 µM): 0.198 | relative viability (NCI-H1355; first compound 0.2 µM): 0.988 | relative viability (NCI-H1355; first compound 0.6325 µM): 0.902 | relative viability (NCI-H1355; first compound 2 µM): 0.967 | relative viability (NCI-H1355; first compound 6.325 µM): 0.738 | relative viability (NCI-H1355; first compound 20 µM): 0.483 | relative viability (NCI-H1792; first compound 0.2 µM): 0.861 | relative viability (NCI-H1792; first compound 0.6325 µM): 0.897 | relative viability (NCI-H1792; first compound 2 µM): 0.983 | relative viability (NCI-H1792; first compound 6.325 µM): 0.527 | relative viability (NCI-H1792; first compound 20 µM): 0.294 | relative viability (NCI-H2009; first compound 0.2 µM): 1.04 | relative viability (NCI-H2009; first compound 0.6325 µM): 0.876 | relative viability (NCI-H2009; first compound 2 µM): 1.1 | relative viability (NCI-H2009; first compound 6.325 µM): 0.449 | relative viability (NCI-H2009; first compound 20 µM): 0.133 | relative viability (EPLC-272H; first compound 0.2 µM): 0.884 | relative viability (EPLC-272H; first compound 0.6325 µM): 0.886 | relative viability (EPLC-272H; first compound 2 µM): 0.722 | relative viability (EPLC-272H; first compound 6.325 µM): 0.792 | relative viability (EPLC-272H; first compound 20 µM): 0.528 | relative viability (NCI-H2228; first compound 0.2 µM): 1.25 | relative viability (NCI-H2228; first compound 0.6325 µM): 0.735 | relative viability (NCI-H2228; first compound 2 µM): 1.22 | relative viability (NCI-H2228; first compound 6.325 µM): 0.346 | relative viability (NCI-H2228; first compound 20 µM): 0.247
